Measurements as given in patent US11800869B2, “Use of 6-oxo-1,4,5,6-tetrahydropyridazine-3-carboxylic acid, 1-methyl 6-oxo-1,4,5,6-tetrahydropyridazine-3-carboxylic acid and 1-alkyl-6-oxo-1,4,5,6-tetrahydropyridazine-3-carboxylic acid for improving growth performance in plants” (Advanced Crop Chem LLP, priority 2020, dated 2023).

What was measured:
Type in all cases: in vivo
[1] = tested on: Winter wheat variety AWC 13; test: Wheat seed treatment, greenhouse, root biomass (Example 1); settings: seed treatment 10g per 1 ton of seed; greenhouse 21° C; 30 days after planting; untreated 0.65
Experimental: (§1) Wheat seeds were treated with 6-oxo-1,4,5,6 tetrahydropyridazine-3-carboxylic acid (THP) and treated plants to examine the impact on shoot and root biomass. Winter wheat variety AWC 13 seeds were treated with either 6-oxo-1,4,5,6-tetrahydropyridazine-3-carboxylic acid (THP) or 1-methyl 6-oxo-1,4,5,6 tetrahydropyridazine-3-carboxylic acid (MTHP) at an effective rate of 10g diluted in 2 L water plus 0.25% Nouryon wetter and applied to 1 ton of seed. These seed were planted in coarse river sand and grown in a greenhouse under ambient light at the greenhouse at 21° C. Plants were irrigated every other day with water containing 50% strength Hoaglands solution. Plants were assessed for emergence and biomass accumulation 30 days after planting. The plants from seeds treated with 6-oxo-1,4,5,6-tetrahydropyridizin-3-carboxylic acid or 1-methyl 6-oxo-1,4,5,6 tetrahydropyridazine-3-carboxylic acid had larger root biomasses (0.83, 0.85 g, dry weight/plant) compared with plants from untreated seeds (0.65 g dry weight/plant).

Wheat = test: Seed treatment plus foliar spray, root and shoot biomass and emergence, wheat (Example 2)
Experimental: as §1, with “Winter” for “Wheat seeds were treated with 6-oxo-1,4,5,6 tetrahydropyridazine-3-carboxylic acid (THP) and treated plants to examine the impact on shoot and root biomass. Winter”, “weight/plant). Wheat, corn and pepper seeds were treated with 6-oxo-1,4,5,6-tetrahydropyridizine-3-carboxylic acid (THP) using the same methodology and growth conditions as described in example 1 and the resulting plants were also treated with a light foliar cover spray using an electric hand-held sprayer. (100 g in 200 L water plus 0.25% Nouryon wetter) of 6-oxo-1,4,5,6 tetrahydropyridazine-3-carboxylic acid (30 days post emergence (wheat at Zadoks GS 14 (see FIG. 1), maize at V2, Pepper at 3-4 leaf stage) and then assessed for root and shoot biomass 45 days later. At 75 days post planting the plants were assessed for root and shoot biomass as measured with dry weight.” for “weight/plant).”

Corn = test: Foliar treatment dose series, root and shoot fresh weight, corn (Example 8); settings: 35 days post treatment; for Root, FWt: dose 0: 2.3; for Shoot, FWt: dose 0: 6.1
Experimental: Corn and wheat plants were given a foliar treatment […] (as described in Example 2) with 6-oxo-1,4,5,6 tetrahydropyridazine-3-carboxylic acid (THP) and then assessed for root and shoot biomass. Three treatment dosages were applied (Table 2). Plants were grown in a greenhouse with a diurnal cycle of 55-75F with ambient light. The plants were grown in a coarse river sand in 4″ pots with 0.5 g of Osmacote/pot. The mean root and shoot fresh weights were assessed at 35 days post treatment.

Wheat seeds [2] = test: Wheat seed treatment, germination paper, shoot and root fresh weights (Example 9); settings: pH 5.7-5.8, germination paper 75-85° F; for Shoot fresh weight: Control 27.4; for Roots fresh weight: Control 29.1
Experimental: Wheat seeds were treated with 6-oxo-1,4,5,6 tetrahydropyridazine-3-carboxylic acid and the shoot and root fresh weights as shown in Table 1. Shoot and root fresh weights at this stage are components of early seedling emergence which is important for early establishment of a vigorous and productive crop. Wheat seeds were treated with a solution of either 0.1 mM or 0.01 mM 6-oxo-1,4,5,6 tetrahydropyridazine-3-carboxylic acid in an aqueous solution at pH 5.7-5.8. The seeds were placed on moist germination paper and allowed to germinate at 75-85° F. The control seeds were imbibed in aqueous solution containing only the soft soap and glycerol.

Wheat seeds [3] = test: Wheat seed treatment, in vitro germination and early growth compared with Take Off (Example 11); settings: 10 g per ton of seed; petri dishes, 20C; FIG. 6
Experimental: Referring to FIG. 6, illustrated are three photographs 600 of an In vitro assessment of the effects on the germination and early stage growth of wheat following treatment of naked wheat seed with of 6-oxo-1,4,5,6 tetrahydropyridazine-3-carboxylic acid. Untreated 610, THP 620 and a commercial seed treatment, Take Off® 630. The seed shown in 620 was grown under natural daylight conditions at 20-22 degrees Centigrade. Wheat seeds were treated with 6-oxo-1,4,5,6 tetrahydropyridazine-3-carboxylic acid or a commercial seed treatment at labeled rates (Take Off ST) and allowed to germinate to examine and compare the effects of temperature on germination. Wheat seeds were treated with 6-oxo-1,4,5,6 tetrahydropyridazine-3-carboxylic acid or Take Off, a commercial biostimulant (that claims faster germination and emergence). The treated seeds received the treatment compounds at the rate of 10 g per ton of seed utilizing the same dosing methodology as Example 1. However in this case seeds were germinated on moistened absorbent paper towel discs in closed petri dishes. The seeds were incubated at 20C in darkness until germination commenced and then grown in natural diurnal conditions for a further 12 days.

[4] = tested on: Soybean seeds, cv. Viking; test: Soybean seed treatment, root nodulation by Bradyrhizobium japonicum (Example 19); settings: seed treatment 0.1 mM; greenhouse 75° F; 4 weeks after planting; untreated 655.8 mg
Experimental: Soybean seed were treated with 6-oxo-1,4,5,6 tetrahydropyridazine-3-carboxylic acid to examine the effect on root nodulation by a nitrogen fixing bacterium.
Soybean seeds, cv. Viking, were treated with 6-oxo-1,4,5,6 tetrahydropyridazine-3-carboxylic acid (0.1 mM) and the resulting seedlings were grown in a greenhouse at 75° F. under natural light during a winter season. The extent of root nodulation by Bradyrhizobium japonicum, a nitrogen fixing bacterium was determined 4 weeks after planting. Plants from the untreated seeds averaged 655.8 mg of nodules per plant versus 763.7 mg for the plants from treated seeds.

[5] = seed treatment plus foliar spray 100 g in 200 L, 75 days post planting
[6] = foliar dose 50 g/ha in 200 L/ha
[7] = foliar dose 100 g/ha in 200 L/ha
[8] = foliar dose 200 g/ha in 200 L/ha

O=C1CCC(C(=O)O)=NN1 [THP, 6-oxo-1,4,5,6 tetrahydropyridazine-3-carboxylic acid]
root biomass [1]: 0.83 g, dry weight/plant | Root Dry Weight, % Difference vs Untreated (Wheat; [5]): 12% | Shoot Dry Weight, % Difference vs Untreated (Wheat; [5]): 7% | Emergence, % Difference vs Untreated (Wheat; seed treatment, % Emergence at 10 days post planting): 16% | Root, FWt (Corn; [6]): 2.7 g | Shoot, FWt (Corn; [6]): 7.8 g | Root, FWt (Corn; [7]): 3.4 g | Shoot, FWt (Corn; [7]): 7.2 g | Root, FWt (Corn; [8]): 1.8 g | Shoot, FWt (Corn; [8]): 5.1 g | Shoot fresh weight (Wheat seeds [2]; seed treatment 0.01 mM): 44.7 mg | Roots fresh weight (Wheat seeds [2]; seed treatment 0.01 mM): 48.1 mg | Shoot fresh weight (Wheat seeds [2]; seed treatment 0.1 mM): 42.1 mg | Roots fresh weight (Wheat seeds [2]; seed treatment 0.1 mM): 43.8 mg | root biomass compared with untreated seeds or Take Off treated seeds (Wheat seeds [3]): greater root biomass | shoots compared with untreated seeds or Take Off treated seeds (Wheat seeds [3]): longer bright green shoots | nodules per plant [4]: 763.7 mg
